Results published in US20150133426A1, “SUBSTITUTED PYRROLOPYRIMIDINES” (BAYER PHARMA AKTIENGESELLSCHAFT, priority 2012, published 2015).

Each compound was assayed against T1, human full-length MKNK1 (Homo sapiens, UniProt Q9BUB5, T385D) (assay: MKNK1 kinase high ATP assay (TR-FRET)). Conditions: high ATP (2 mM), 15 min preincubation with enzyme, GST-MKNK1 (T344D).
T1 construct: purchased Carna Biosciences 02-145; host or cells: insect cells, baculovirus expression system
Assay type: biochemical
Procedure: MKNK1-inhibitory activity at high ATP of compounds of the present invention after their preincubation with MKNK1 was quantified employing the TR-FRET-based MKNK1 high ATP assay as described in the following paragraphs.
A recombinant fusion protein of Glutathione-S-Transferase (GST, N-terminally) and human full-length MKNK1 (amino acids 1-424 and T344D of accession number BAA 19885.1), expressed in insect cells using baculovirus expression system and purified via glutathione sepharose affinity chromatography, was purchased from Carna Biosciences (product no 02-145) and used as enzyme. As substrate for the kinase reaction the biotinylated peptide biotin-Ahx-IKKRKLTRRKSLKG (C-terminus in amide form) was used, which can be purchased e.g. from the company Biosyntan (Berlin-Buch, Germany).
For the assay 50 nL of a 100fold concentrated solution of the test compound in DMSO was pipetted into a black low volume 384well microtiter plate (Greiner Bio-One, Frickenhausen, Germany), 2 μL of a solution of MKNK1 in aqueous assay buffer [50 mM HEPES pH 7.5, 5 mM MgCl2, 1.0 mM dithiothreitol, 0.005% (v/v) Nonidet-P40 (Sigma)] was added and the mixture was incubated for 15 min at 22° C. to allow pre-binding of the test compounds to the enzyme before the start of the kinase reaction. Then the kinase reaction was started by the addition of 3 μL of a solution of adenosine-tri-phosphate (ATP, 3.3 mM=>final conc. in the 5 μL assay volume is 2 mM) and substrate (0.1 μM=>final conc. in the 5 μL assay volume is 0.06 μM) in assay buffer and the resulting mixture was incubated for a reaction time of 30 min at 22° C. The concentration of MKNK1 was adjusted depending of the activity of the enzyme lot and was chosen appropriate to have the assay in the linear range, typical concentrations were in the range of 0.003 μg/mL. The reaction was stopped by the addition of 5 μL of a solution of TR-FRET detection reagents (5 nM streptavidine-XL665 [Cisbio Bioassays, Codolet, France] and 1 nM anti-ribosomal protein […] (pSer236)-antibody from Invitrogen [#44921G] and 1 nM LANCE EU-W1024 labeled ProteinG [Perkin-Elmer, product no. AD0071]) in an aqueous EDTA-solution (100 mM EDTA, 0.1% (w/v) bovine serum albumin in 50 mM HEPES pH 7.5).
The resulting mixture was incubated for 1 h at 22° C. to allow the formation of complex between the phosphorylated biotinylated peptide and the detection reagents. Subsequently the amount of phosphorylated substrate was evaluated by measurement of the resonance energy transfer from the Eu-chelate to the streptavidine-XL. Therefore, the fluorescence emissions at 620 nm and 665 nm after excitation at 350 nm were measured in a TR-FRET reader, e.g. a Rubystar (BMG Labtechnologies, Offenburg, Germany) or a Viewlux (Perkin-Elmer). The ratio of the emissions at 665 nm and at […] was taken as the measure for the amount of phosphorylated substrate. The data were normalised (enzyme reaction without inhibitor=0% inhibition, all other assay components but no enzyme=100% inhibition).

T1 sequence (Q9BUB5 1-424 isoform Q9BUB5-2 T344D): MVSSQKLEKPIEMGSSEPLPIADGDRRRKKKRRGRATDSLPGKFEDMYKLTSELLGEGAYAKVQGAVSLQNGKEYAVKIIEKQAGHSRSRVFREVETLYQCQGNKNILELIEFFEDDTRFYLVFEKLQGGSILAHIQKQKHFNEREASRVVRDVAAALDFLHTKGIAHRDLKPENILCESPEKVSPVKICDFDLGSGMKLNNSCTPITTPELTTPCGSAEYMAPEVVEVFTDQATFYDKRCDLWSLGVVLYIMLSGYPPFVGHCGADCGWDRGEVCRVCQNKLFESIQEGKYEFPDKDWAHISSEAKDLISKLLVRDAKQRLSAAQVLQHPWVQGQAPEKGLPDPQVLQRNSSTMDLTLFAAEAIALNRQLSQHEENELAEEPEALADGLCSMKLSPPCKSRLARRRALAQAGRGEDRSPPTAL

| Compound | IC50 [nM] |
| --- | --- |
| O=C(O)C1CCc2[nH]c3ncnc(Nc4ccccc4N4CCOCC4)c3c2C1 (racemic) [Example 186, (RS)-4-{[2-(Morpholin-4-yl)phenyl]amino}-6,7,8,9-tetrahydro-5H-pyrimido[4,5-b]indole-6-carboxylic acid] | 911 |
| CCOC(=O)C1CCc2[nH]c3ncnc(Nc4cc5cn[nH]c5cc4OC)c3c2C1 (racemic) [Example 179, (RS)-Ethyl 4-[(6-methoxy-1H-indazol-5-yl)amino]-6,7,8,9-tetrahydro-5H-pyrimido[4,5-b]indole-6-carboxylate] | 13 |
| COc1cc2[nH]c(=O)[nH]c2cc1Nc1ncnc2[nH]c3c(c12)CC(C(=O)NCCCS(C)(=O)=O)CC3 (racemic) [Example 164, (RS)-4-[(6-Methoxy-2-oxo-2,3-dihydro-1H-benzimidazol-5-yl)amino]-N-[3-(methylsulfonyl)propyl]-6,7,8,9-tetrahydro-5H-pyrimido[4,5-b]indole-6-carboxamide] | 225 |
| CS(=O)(=O)CCCNC(=O)C1CCc2[nH]c3ncnc(Nc4ccccc4OC4CCOC4)c3c2C1 (racemic) [Example 167, (RS)—N-[3-(Methylsulfonyl)propyl]-4-{[2-(tetrahydrofuran-3-yloxy)phenyl]amino}-6,7,8,9-tetrahydro-5H-pyrimido[4,5-b]indole-6-carboxamide] | 70 |
| COCC1(OC)CCc2[nH]c3ncnc(Nc4cc(Cl)ccc4OC(C)C)c3c2C1 (racemic) [Example 132] | 503 |
| CCOC(=O)CNC(=O)C1CCc2[nH]c3ncnc(Nc4ccc(F)cc4OCCO)c3c2C1 (racemic) [Example 228, (RS)-Ethyl N-[(4-{[4-fluoro-2-(2-hydroxyethoxy)phenyl]amino}-6,7,8,9-tetrahydro-5H-pyrimido[4,5-b]indol-6-yl)carbonyl]glycinate] | 51 |
| COc1ccc(F)cc1Nc1ncnc2[nH]c3c(c12)CC(C(=O)NCCC(F)(F)F)CC3 (racemic) [Example 198, (RS)-4-[(5-Fluoro-2-methoxyphenyl)amino]-N-(3,3,3-trifluoropropyl)-6,7,8,9-tetrahydro-5H-pyrimido[4,5-b]indole-6-carboxamide] | 249 |
| Cc1nc2cc(Nc3ncnc4[nH]c5c(c34)CC(C(=O)NCCCS(C)(=O)=O)CC5)ccc2s1 (racemic) [Example 50, (RS)-4-[(2-Methyl-1,3-benzothiazol-5-yl)amino]-N-[3-(methylsulfonyl)propyl]-6,7,8,9-tetrahydro-5H-pyrimido[4,5-b]indole-6-carboxamide] | 6410 |
| CC(C)NC(=O)C1CCc2[nH]c3ncnc(Nc4ccc5[nH]ncc5c4)c3c2C1 (racemic) [Example 227, (RS)-4-(1H-Indazol-5-ylamino)-N-(propan-2-yl)-6,7,8,9-tetrahydro-5H-pyrimido[4,5-b]indole-6-carboxamide] | 24 |
| COc1ccc(F)cc1Nc1ncnc2[nH]c3c(c12)CC(C(=O)NC(C)C)CC3 (racemic) [Example 195, (RS)-4-[(5-Fluoro-2-methoxyphenyl)amino]-N-(propan-2-yl)-6,7,8,9-tetrahydro-5H-pyrimido[4,5-b]indole-6-carboxamide] | 123 |
| CCOC(=O)C1CCc2[nH]c3ncnc(Nc4ccc5[nH]ncc5c4)c3c2C1 (racemic) [Example 5, (RS)-Ethyl 4-(1H-indazol-5-ylamino)-6,7,8,9-tetrahydro-5H-pyrimido[4,5-b]indole-6-carboxylate] | 18 |
| COCC1(OC)CCc2[nH]c3ncnc(Nc4ccc5[nH]ncc5c4)c3c2C1 (racemic) [Example 135] | 167 |
| O=C(O)C1CCc2[nH]c3ncnc(Nc4ccccc4OC4CCCC4)c3c2C1 (racemic) [Example 180, (RS)-4-{[2-(Cyclopentyloxy)phenyl]amino}-6,7,8,9-tetrahydro-5H-pyrimido[4,5-b]indole-6-carboxylic acid] | 2890 |

Other lines, results leading:

| IC50 [nM] | Compound |
| --- | --- |
| 12 | CC(C)Oc1ccc(Cl)cc1Nc1ncnc2[nH]c3c(c12)CC(C(=O)NCCCS(C)(=O)=O)CC3 (racemic) [Example 150, (RS)-4-{[5-Chloro-2-(propan-2-yloxy)phenyl]amino}-N-[3-(methylsulfonyl)propyl]-6,7,8,9-tetrahydro-5H-pyrimido[4,5-b]indole-6-carboxamide] |
| 13300 | CSc1cc2c(cc1Nc1ncnc3[nH]c4c(c13)CC(C(=O)NCCCS(C)(=O)=O)CC4)OCCO2 (racemic) [Example 65, (RS)-4-{[7-(Methylsulfanyl)-2,3-dihydro-1,4-benzodioxin-6-yl]amino}-N-[3-(methylsulfonyl)propyl]-6,7,8,9-tetrahydro-5H-pyrimido[4,5-b]indole-6-carboxamide] |
| 10 | CNC(=O)C1CCc2[nH]c3ncnc(Nc4cc5cn[nH]c5cc4OC)c3c2C1 (racemic) [Example 217, (RS)-4-[(6-Methoxy-1H-indazol-5-yl)amino]-N-methyl-6,7,8,9-tetrahydro-5H-pyrimido[4,5-b]indole-6-carboxamide] |
| ≥ 20000 | O=[N+]([O-])c1ccc2c(c1)N(c1ncnc3[nH]c4c(c13)CCCC4)CC2 [Example 121] |
| ≥ 20000 | COc1ccc(C(F)(F)F)cc1Nc1ncnc2[nH]c3c(c12)CCCC3 [Example 119] |
| 124 | Cc1ccc(Nc2ncnc3[nH]c4c(c23)CC(C(=O)NCCCS(C)(=O)=O)CC4)cc1S(=O)(=O)O (racemic) [Example 59, (RS)-2-Methyl-5-[(6-{[3-(methylsulfonyl)propyl]carbamoyl}-6,7,8,9-tetrahydro-5H-pyrimido[4,5-b]indol-4-yl)amino]benzenesulfonic acid] |
| 1490 | Clc1ccc(Nc2ncnc3[nH]c4c(c23)CCCC4)cc1Cl [Example 114] |
| 494 | CC1(C)Cc2cccc(Nc3ncnc4[nH]c5c(c34)CC(C(=O)NCCCS(C)(=O)=O)CC5)c2O1 (racemic) [Example 80, (RS)-4-[(2,2-Dimethyl-2,3-dihydro-1-benzofuran-7-yl)amino]-N-[3-(methylsulfonyl)propyl]-6,7,8,9-tetrahydro-5H-pyrimido[4,5-b]indole-6-carboxamide] |
| 251 | O=C(O)C1CCc2[nH]c3ncnc(Nc4ccc(F)cc4OCCO)c3c2C1 (racemic) [Example 182, (RS)-4-{[4-Fluoro-2-(2-hydroxyethoxy)phenyl]amino}-6,7,8,9-tetrahydro-5H-pyrimido[4,5-b]indole-6-carboxylic acid] |
| 370 | CS(=O)(=O)CCCNC(=O)C1CCc2[nH]c3ncnc(Nc4ccc5c(c4)OCC(=O)N5)c3c2C1 (racemic) [Example 51, (RS)—N-[3-(Methylsulfonyl)propyl]-4-[(3-oxo-3,4-dihydro-2H-1,4-benzoxazin-7-yl)amino]-6,7,8,9-tetrahydro-5H-pyrimido[4,5-b]indole-6-carboxamide] |
| 3410 | CN1CCN(C(=O)C2CCc3[nH]c4ncnc(N5CCc6ccccc65)c4c3C2)CC1 (racemic) [Example 211, (RS)-[4-(2,3-Dihydro-1H-indol-1-yl)-6,7,8,9-tetrahydro-5H-pyrimido[4,5-b]indol-6-yl](4-methylpiperazin-1-yl)methanone] |
| 6 | COc1cc2[nH]ncc2cc1Nc1ncnc2[nH]c3c(c12)CCCC3 [Example 112] |
| 175 | O=C(NC1CC1)C1CCc2[nH]c3ncnc(Nc4ccccc4N4CCOCC4)c3c2C1 (racemic) [Example 203, (RS)—N-Cyclopropyl-4-{[2-(morpholin-4-yl)phenyl]amino}-6,7,8,9-tetrahydro-5H-pyrimido[4,5-b]indole-6-carboxamide] |
| 215 | CCNC(=O)C1CCc2[nH]c3ncnc(Nc4ccccc4N4CCOCC4)c3c2C1 (racemic) [Example 201, (RS)—N-Ethyl-4-{[2-(morpholin-4-yl)phenyl]amino}-6,7,8,9-tetrahydro-5H-pyrimido[4,5-b]indole-6-carboxamide] |
| 242 | O=C(Nc1ccccc1)C1CCc2[nH]c3ncnc(Nc4ccccc4N4CCOCC4)c3c2C1 (racemic) [Example 205, (RS)-4-{[2-(Morpholin-4-yl)phenyl]amino}-N-phenyl-6,7,8,9-tetrahydro-5H-pyrimido[4,5-b]indole-6-carboxamide] |
